Experimental data as given in publication PMC7374640 (Nature structural & molecular biology, 2020).

What was measured:
[1] = target: human insulin receptor, isoform B (hIR, IR-B) (human) (UniProt P06213)
[2] = cited from earlier work
[3] = test system: insulin receptor; conditions: cited from earlier work

With DOI with TyrB20 substitution (peptide) the bioactivity (insulin receptor activation assay), fold increase against DOI [1] was 5 fold.

For “HisA8 human insulin: human insulin with ThrA8 substituted by histidine (literature)”, the “increase in potency on substitution of human insulin ThrA8 by histidine” value [2] is given as “three-fold”.

In the case of “des-heptapeptide(B24-B30)-[GlyB23-α-carboxamide]insulin”, the “receptor affinity relative to native insulin (fold lower)” value [3] is given as ~ 500 fold.

For “des-hexapeptide(B25-B30)-[PheB24-α-carboxamide]insulin”, the “receptor affinity relative to native insulin (fold lower)” value [3] is given as ~ 20 fold.

In the case of “des-pentapeptide(B26-B30)-[PheB25-α-carboxamide]insulin”, the “receptor affinity relative to native insulin (fold lower)” value [3] is given as “native-like”.
